The source of these data is publication PMC8998618, “A Pharmacokinetic and Metabolism Study of the TRPC6 Inhibitor SH045 in Mice by LC-MS/MS” (International Journal of Molecular Sciences, 2022).

One data set relates to liver, kidney and lung. In words: histopathological examination of tissue after administration of SH045. The data set is classed as in vivo, mice. Conditions: 20 mg/kg BW i.v., single and repeated (5 days); hematoxylin-eosin. The source says: Liver, kidney, and lung were collected after repeated administration, fixed and processed for inspection for histopathological alterations (Supplementary Materials SM3).
Larixyl-N-methylcarbamate ((1S,4S,4aR,8aS)-4-((S)-3-hydroxy-3-methylpent-4-en-1-yl)-4a,8,8-trimethyl-3-methylenedeca-hydro-naphthalen-1-yl methylcarbamate, SH045, TRPC6 inhibitor) was synthesized as described by Häfner et al. [1]. (+)-Larixol (internal standard, IS) was isolated from Larix decidua turpentine [2]. Kolliphor® EL was obtained from Caelo (Hilden, Germany). Acetonitrile (ACN), water, and formic acid (LC -MS grade each) were purchased from Fisher Scientific (Schwerte, Germany). […]
SM2 Quantification of SH045 by HPLC and tandem mass spectrometric methods (LC-MS/MS) In brief, chromatographic separation was achieved using a Zorbax Eclipse XDB-C8 column (100 × 3.0 mm, 3.5 μm 80 Å, Agilent Technologies) with linear gradient elution using water and ACN, each with 0.1 % formic acid as additive, during a total run time of 20 min. For quantification (+)-larixol was used as IS. […] Freshly prepared calibration samples for SH045 in plasma and tissue comprised eight concentration levels analyzed in duplicates (2, 5, 10, 100, 200, 800, 1200 and 1600 ng/mL). […]

Data set [1] in a line: tissue homogenate binding by ultrafiltration. It is filed as in vitro ADME, mice. How it is done: After centrifugation of mixtures from tissue or microsomal incubations for 15 min at 4 °C, the supernatants were filtered through a 0.2 -µm-pore-size syringe filter and stored in the autosampler at 6 °C until analysis by LC-MS/MS as […]
SM5 Tissue binding of SH045
The tissue binding of SH045 was analyzed exemplarily in lung, liver and kidney homogenate using ultrafiltration [5]. Appropriate concentrations of homogenate and SH045 were optimized out of data from a series of various dilution ratios of tissue homogenates (1/2, 1/5, 1/10 and 1/20, w/v) and SH045 concentrations in spiked homogenate (liver and kidney: 0.05, 0.1, 0.5, 1, 2, 5 µg/mL; lung: 1, 2, 5, 10, 20, 50 µg/mL, not shown). Tissue binding assays were performed as follows: 448 µL tissue homogenates (1/10, w/v) were mixed with 2 µL SH045 (final: 50 µg/ml for lung, 2 µg/ml for liver and 1 µg/ml kidney). After incubation for 15 min at 37 °C at 450 rpm, 400 µL of the mixture was transferred to centrifugal filter units (30kDa) and centrifuged for 20 min at 2000g and 37 °C. 20 µL of the mixture and the filtrate were analyzed for SH045. The concentration in the filtrate refers to the unbound SH045 concentration according to tissue binding (%) = (ctot – cfiltrate) / ctotal × 100%. […]
Mean maximum rate vmax and Michaelis- […]
CLint,micr the intrinsic clearance CLint, equal to the maximum enzyme activity of liver and for in vitro-in vivo exploration of hepatic clearance CLhep in mouse and human using the “well-stirred” model [6].
SM7 Identification of metabolism pathways and metabolites of SH045 in MLM and HLM To determine possible metabolism pathways of SH045 in MLM and HLM, an in vitro inhibition approach was performed with CYP-isoform specific inhibitors (final concentration): ciprofloxacin (CYP1A2; 150 µM), pilocarpine (CYP2A6; 50 µM), ticlopidine (CYP2B6; 5 µM), quercetin (CYP2C8; 2 µM), sulfaphenazole (CYP2C9; 10 µM), fluvoxamine (CYP2C19; 10 µM), quinidine (CYP2D6; 10 µM), 4-methyl pyrazole (CYP2E1; 100 µM) and ketoconazole (CYP3A4; 1 µM) [7, 8]. […]

The test system of a further data set is TRPC6. The arrangement: method as in PMID 29522264. Conditions: in vitro; cited from earlier work.

A word on the IC50: it is the concentration at which inhibition is half-maximal.

As to `C=C[C@@](C)(O)CC[C@H]1C(=C)C[C@H](OC(=O)NC)[C@H]2C(C)(C)CCC[C@]12C` [SH045, (1S,4S,4aR,8aS)-4-((S)-3-Hydroxy-3-methylpent-4-en-1-yl)-4a,8,8-trimethyl-3-methylenedecahydronaphthalen-1-yl methylcarbamate], the “histopathological changes in liver, kidney and lung” value in the data set on liver, kidney and lung is listed as “no histopathological changes were observed”. Further, the Tissue binding in data set [1] (kidney) amounted to 98%; in data set [1] (liver), 97%; in data set [1] (lung), 97%. Moreover, the IC50 with TRPC6 is 5.8 nM.
